Reference: patent US20250118786A1, “LONG-LIVED REDOX-ACTIVE MOLECULES WITH LOW REDOX POTENTIAL” (President and Fellows of Harvard College, priority 2021, published 2025)
Read-outs that look alike come from different tables or passages of the source.

Experiments:
[1] = Solubility in water and salt solutions; assay type: physicochemical
[2] = Long-term cycling of 0.1 M 2,6-N-TSAQ/ferrocyanide flow cell
Description: Flow battery experiments were performed with cell and hardware from Fuel Cell Tech. (Albuquerque, NM). Pyrosealed POCO graphite flow plates with serpentine flow designs were used for both electrodes. Each electrode comprised a single 5 cm^2 geometric surface area sheet of AvCarb carbon electrode. For 2,6-N-TSAQ/ferrocyanide full cell tests, a Nafion™ 212 membrane was used to serve as the ion-selective membrane. The Nafion membrane was soaked in the supporting electrolyte (sodium hydroxide or sodium chloride) for at least 24 hours before use. Viton sheets were used to cover the outer portion space between the electrodes. Torque used for cell assembly was 60 lb-in (6.78 Nm) on each of eight 1/4-28 bolts. The electrolytes were fed into the cell through fluorinated ethylene propylene (FEP) tubing at a rate of 60 mL/min, controlled by Cole-Parmer 6 Masterflex L/S peristaltic pumps. The cell was run inside a glove box (1 ppm O2). Cell polarization measurements and charge-discharge cycling were conducted using a Biologic BCS-815 battery cycler. […] The polarization curves were obtained by charging to a desired state of charge first and then polarizing via linear sweep voltammetry at a rate of 100 mV s^−1.
Long-term cycling testing of 0.1 M 2,6-N-TSAQ/ferrocyanide was performed with the same cell. The cell was cycled at 40 mA cm^2 with potential holds at 1.4 V for charging and 0.6 V for discharging until the current density dropped to 2 mA cm^−2. The initial discharge capacity was 4.764 Ah L^−1, corresponding to a capacity utilization of 88.9% of the theoretical value. However, the OCV at different SOC values in FIG. 8 (a) and the typical voltage profile in FIG. 9 (c) indicates it accesses the complete capacity of 2,6-N-TSAQ under such conditions. The differences between the actual capacity and the theoretical value could come from non-redox active impurities such as water or salts in the sample. […] The average coulombic efficiency was determined to be above 99.9%. […]

[3] = Cyclic voltammetry (three-electrode system); assay type: physicochemical
Description: A glassy carbon (BASi, 3 mm diameter) working electrode, an Ag/AgCl reference electrode (BASi, 3 M NaCl solution), and a graphite counter electrode were used in the three-electrode system for all CV tests. The scan rates for CV tests were 10, 20, 50, 100, and 200 mV s^−1. The diffusion coefficient D was calculated based on the Randles-Sevcik equation: Ip=269000×n^1.5 AD^0.5v^0.5C, where Ip is the peak current in amps, n is the number of electrons involved (n=2 for 2,6-N-TSAQ) in the redox reaction, A is the active surface area (0.0707 cm^2), D is the diffusion coefficient in cm^2/s, v is the scan rate in V/s, and C is the concentration of redox species in mol/cm^3.
The reduction potential of 2,6-N-TSAQ is-0.62 V vs. SHE in 1M NaCl, which is 120 mV and 170 mV lower than that of 2,6-O-DPSAQ and 2,6-DPSAQ in 1M NaCl, respectively. The low redox potential of 2,6-N-TSAQ is attributed to the strong electron donating effect of N-alkyl group. It contributes to form a high working voltage and high power density flow battery. […] The ammonium cation, however, sacrifices the redox potential of 2,6-N-TSAQ as the local pH is always lower than the pKa2 of 9,10-dihydroxyanthracene, which is also observed in the reported 9,10-anthraquinone-2,7-disulfonic diammonium salt.

[4] = Storage in 1 M NaCl at 65° C. for 8 days, 1H NMR; assay type: physicochemical
From the text: For comparison, the long-term cycling of the 0.1 M 2,6-N-TSAQ/ferrocyanide cell was operated at neutral condition (1 M sodium chloride) but, otherwise, the same conditions. The initial volumetric capacity was 4.774 Ah L^−1, which is similar to that at pH 14. After 2.84 days cycling, the discharge capacity dropped to 4.412 Ah/L, corresponding to a capacity fade rate of 2.6%/day, which is around 2 orders magnitude higher than that at pH 14. And the coulombic efficiency is around 99.8% over the whole cycling process, which is slightly lower than that at pH 14. […] To investigate the origin of instability of 2,6-N-TSAQ at neutral condition, both oxidized and reduced forms of 2,6-N-TSAQ were stored in 1 M NaCl at 65° C. for 8 days.

[5] = water, read-out: water solubility

solubility [1, 5] [mM]	solubility ([1]; 1 M lithium chloride, saline or isotonic, 1 M lithium chloride, read-out: solubility) [mM]	solubility ([1]; 1 M sodium chloride, saline or isotonic, 1 M sodium chloride, read-out: solubility) [mM]	solubility ([1]; deionized water, water, deionized water, read-out: solubility) [mM]	capacity fade rate ([2]; neutral condition (1 M sodium chloride), 0.1 M, 2.84 days cycling) [%/day]	cycle-denominated capacity fade rate ([2]; pH 14, 0.1 M, full SOC range cycling) [%/cycle]	temporal capacity fade rate ([2]; pH 14, 0.1 M, full SOC range cycling, 9 days) [%/day]	solubility ([1]; water, with ammonium ion exchange, read-out: solubility) [mM]	reduction potential ([3]; 1M NaCl (unbuffered)) [V vs. SHE]	reduction potential lower than that of 2,6-DPSAQ ([3]; difference versus 2,6-DPSAQ) [mV]	reduction potential lower than that of 2,6-O-DPSAQ ([3]; difference versus 2,6-O-DPSAQ) [mV]	decomposition by 1H NMR, oxidized state ([4]; oxidized form)	decomposition by 1H NMR, reduced state ([4]; reduced form)	SMILES
300													O=C1c2ccc(CCCS(=O)(=O)[O-])cc2C(=O)c2ccc(CCCS(=O)(=O)[O-])cc21.[Na+].[Na+] [2,6-DPSAQ, sodium 3,3′-(9,10-anthraquinone-2,6-diyl)bis(propane-1-sulfonate)]
	10	< 5	10										O=C1c2ccc(OCCCS(=O)(=O)[O-])cc2C(=O)c2ccc(OCCCS(=O)(=O)[O-])cc21.[Na+].[Na+] [2,6-O-DPSAQ, sodium 3,3′-((9,10-anthraquinone-2,6-diyl)bis(oxy))bis(propane-1-sulfonate)]
450				2.6	0.00024	0.025	650	−0.62	170	120	no apparent decomposition	a large quantity of decomposition	O=C1c2ccc(N(CCCS(=O)(=O)O)CCCS(=O)(=O)O)cc2C(=O)c2ccc(N(CCCS(=O)(=O)O)CCCS(=O)(=O)O)cc21 [2,6-N-TSAQ, sodium 3,3′,3″,3′″-((9,10-anthraquinone-2,6-diyl)bis(azanetriyl))tetrakis(propane-1-sulfonate)]
